Experiment [1] deals with T1, E. coli SSADH (gabD gene product) (Escherichia coli, UniProt P25526).
T1 construct: expressed in E. coli BL21(DE3) pLysS; homotetramer, 481 residues per monomer in crystal; single amino acid change versus database gabD, not specified
Kind of experiment: fluorometric NADPH formation (ex […] nm, em […] nm). Format: biochemical. The following applies: 1.1 mM NADP+, 100 mM Na phosphate pH 8.0, 30 °C; varied substrate SSA (range printed as 0–400 mM), substrate not named beside Km.

Experiment [2] concerns the target Escherichia coli succinic semialdehyde dehydrogenase (gabD gene product, NADP+-dependent) (E. coli) (UniProt P25526). Kind of experiment: SEC; analytical size-exclusion chromatography of purified recombinant SSADH; data not shown.

In the case of `O=CCCC(=O)O` [SSA, succinic semialdehyde], the Michaelis constant (Km) in experiment [1] came out at 16.9 ± 2.2 µM.

For “Escherichia coli succinic semialdehyde dehydrogenase (gabD gene product, NADP+-dependent) (from UniProt P25526 1-482) (enzyme)”, the stoichiometry N in experiment [2] was determined as 4.

The values are drawn from article PMC2823781, “The X-Ray Crystal Structure of Escherichia coli Succinic Semialdehyde Dehydrogenase; Structural Insights into NADP^+/Enzyme Interactions” (PLoS ONE, 2010).
